{"source": "patent US6969590B2", "about": "“Use of a polypeptide for treatment of pruritus in animals” (Zengen, Inc., priority 2001, dated 2005)", "key": {"[1]": {"test_system": "fever", "conditions": "relative to parent peptide or to the 11-13 sequence; cited from earlier work"}, "[2]": {"test_system": "human neutrophils", "experiment": "C. albicans killing by human neutrophils", "format": "cell-based", "conditions": "2 hours at 37° C., vs. medium", "procedure": "Venous blood (20 ml) from healthy volunteers was anticoagulated with heparin. Neutrophils were isolated using dextran sedimentation and Ficoll-Hypaque (Sigma Chemical Co., St. Louis, Mi., USA) centrifugation. Erythrocytes were lysed via hypotonic shock. Neutrophils represented at least 97% of the cell suspension. Cell viability, estimated by trypan blue exclusion, was >98%. Neutrophils were suspended to a final concentration in HBSS. C. albicans (1×10^6) were opsonized with human AB serum in a shaking water bath for 30 minutes at 37° C. Organisms were then incubated with neutrophils in medium or in medium with α-MSH (1-13) or α-MSH (11-13) in concentrations of 10^−15 M to 10^−4 M in a shaking water bath for 2 hours at 37° C. After incubation, the culture tubes were placed on ice to stop growth and extracellular organisms were washed twice with centrifugation at 1000×g at 4° C. A 2.5% sodium desoxycholoate solution was added to obtain a suspension of 10^6 cells/ml. Two 1/100 serial dilutions in HBSS were made to obtain a final suspension of 100 cells/ml. Aliquots of 1 ml were dispensed on blood agar plates and incubated for 48 hours at 37° C. Colony forming units (CFUs) were counted at the end of the incubation period. Experiments were run in triplicate and repeated using blood from 5 different donors."}, "[3]": {"test_system": "C. albicans", "experiment": "Horse serum-induced germ tube formation of C. albicans", "format": "cell-based", "conditions": "10^−6M, 60 minutes at 37° C.", "procedure": "C. albicans from stationary phase cultures were washed twice with distilled water and suspended in HBSS to a final concentration of 2×10^6/ml. Hyphal growth was induced by addition of 10% inactivated horse serum (GIBCO/BRL, Great Britain) to yeast incubated for 45 minutes at 37° C. with continuous shaking. Horse serum was removed by washing cells twice with HBSS and incubation was continued for 60 minutes at 37° C. in the presence of α-MSH (1-13), α-MSH (6-13) or α-MSH (11-13) at a concentration of 10^−6M with continuous shaking. The percentage of filamentous cells was evaluated under a light microscope with the aid of hemocytometer. Experiments were run in triplicate and at least 200 cells were scored. Photomicrographs were taken with an MC100 camera attached to an Axioskop Zeiss microscope."}, "[4]": {"test_system": "cAMP", "experiment": "cAMP accumulation in N9 cells", "format": "cell-based, murine", "conditions": "resting cells and cells incubated with LPS+IFN-γ", "procedure": "cAMP accumulation in N9 cells was measured as previously described. Briefly, cells in six-well plates were co-incubated at 37° C. with (1) medium; (2) forskolin (100 μM); (3) LPS (10 ng/mL)+IFN-γ (1 U/mL); (4) α-MSH (1-13) or α-MSH (11-13) (1, 10, 50 μM); (5) LPS+IFN-γ and either α-MSN (1-13) or α-MSH (11-13) (10 μM). Reactions were stopped after 3 min by aspirating supernatants, immediately adding 1 mL ethanol at −20° C. and freezing. cAMP content in the ethanol-soluble fraction was measured using an enzyme immunoassay kit (Amersham)."}, "[5]": {"test_system": "C. albicans", "experiment": "C. albicans colony forming units (candidacidal activity)", "format": "cell-based", "procedure": "C. albicans (1×10^6/ml in HBSS) was incubated in the presence or absence or α-MSH (1-13) or α-MSH (11-13) at concentrations in the range of 10^−15 M to 10^−6 M for 2 hours at 37° C. Cells were then washed in cold distilled water and diluted with HBSS to a concentration of 100 organisms/ml. One-ml aliquots were dispensed on blood agar plates and incubated for 48 hours at 37° C. Organism viability was estimated from the number of colonies formed. In subsequent experiments using familiar procedures we compared activity of α-MSH (4-10), α-MSH (6-13), α-MSH (11-13), ACTH (1-39), (18-39) and fluconazole, the latter an established antifungal agent. Melanocortin peptides and fluconazole were tested in concentrations of 10^−6 M to 10^−4 M. There were at least six replicates for each concentration of peptide."}, "[6]": {"test_system": "TNF-α and iNOS mRNA", "experiment": "Northern blot of TNF-α and iNOS mRNA in activated microglia", "format": "cell-based, murine", "procedure": "Total cellular RNA was extracted from 10^6 adherent microglial cells plated in six-well tissue culture plates (Corning). Electrophoresis of RNA samples (10 μg/lane) was performed in 1% agarose/2.2 M formaldehyde gels and the gels subsequently blotted onto nylon filters by capillary action and baked for 2 h before prehybridization. The cDNA fragments encoding murine TNF-α and mouse macrophage iNOS were ^32P-labeled using the Ready-To-Go DNA Labeling Kit (Pharmacia, Uppsala, Sweden) before hybridization of nylon filters and autoradiography. Blots were subsequently rehybridized with human glyceraldehyde-3-phosphate dehydrogenase (G-3-PDH) cDNA probe as an internal control (Clontech Laboratories, Inc., Palo Alto, Calif.)."}, "[7]": {"test_system": "IL-6", "experiment": "IL-6 production by activated N9 microglia", "format": "cell-based, murine", "conditions": "microglia stimulated with LPS+IFN-γ for 24 hr, micromolar concentrations", "procedure": "(§1) The N9 clone of murine microglial cells was obtained by immortalization of embryonic brain cultures with the 3RV retrovirus carrying an activated v-myconcogene. N9 cells were cultured in T-75-cm^2 culture flasks (Corning, Cambridge, Mass.) and maintained at 37° C. in a humidified incubator under 5% CO2 atmosphere in RPMI 1640 supplemented with 2 mM L-glutamine, 50 U/mL penicillin G, 50 μg/mL streptomycin sulfate (GIBCO-BBL, Paisley, UK), and 10% heat-inactivated fetal bovine serum (FBS, Hyclone Lab, Inc., Logan, Utah) until experiments were performed. Cells were used between the first and the tenth passage.\n(§2) Sub-confluent microglial cells were washed twice with phosphate-buffered saline (PBS) and incubated with trypsin 0.025% and ethylenediaminetetraacetate (EDTA) 0.02% without calcium and magnesium for 3 min. at 37° C. to detach the cells from the culture flask. Cells were then resuspended in medium and incubated in 24-well tissue-culture plates at a concentration of 2×10^5 cells/mL for 16 h in a humidified incubator (37° C., 5% CO2). Growth medium was removed and cell monolayers were stimulated with 10 ng/mL lipopolysaccharide (LPS, from Escherichia coli 055:B5, Sigma Chemical Co., St. Louis, Mo.) plus 1 U/ml, murine IFN-γ (Sigma). To test effects of melanocortin peptides, concentrations (1, 10, 25, 50 and 100 μM) of α-MSH (1-13), α-MSH (11-13), and ACTH (1-24) (Sigma) were dissolved in medium and added to wells 10 min before treatment with LPS+IFN-γ. […] Viability of cells was assessed by trypan blue exclusion for each experimental condition; it was consistently >98%. […]\n(§3) TNF-α bioactivity was measured in supernatants of cell cultures by standard cytotoxicity assay using L929 cells and recombinant human TNF-α (Sigma) as standard. […] IL-6 was measured using a commercial murine enzyme-linked immunosorbent assay (ELISA: RPN 2714, Amersham, Little Chalfont, UK).\n(§4) Effects of melanocortin peptides on cytokine and NO production were evaluated by repeated measures analysis of variance followed by Dunnet's test for specific comparisons. […]"}, "[8]": {"test_system": "TNF-α", "experiment": "TNF-α production by activated N9 microglia", "format": "cell-based, murine", "conditions": "microglia stimulated with LPS+IFN-γ for 24 hr, micromolar concentrations", "procedure": "as §1, §2, §3, §4"}, "[9]": {"test_system": "NO2^−", "experiment": "Nitrite (NO) production by activated N9 microglia", "format": "cell-based, murine", "conditions": "microglia stimulated with LPS+IFN-γ for 24 hr, micromolar concentrations", "procedure": "as §1, §2\nNO is rapidly oxidized to nitrite (NO2) in culture medium, and nitrite concentration is an indicator of NO production. […] Samples were incubated at room temperature for 10 min and absorbency was measured at 540 nm with the use of a microplate reader. Nitrite concentrations were calculated using a sodium nitrite standard curve.\nas §4"}, "[10]": {"conditions": "kind of activity not given; cited from earlier work"}, "[11]": {"test_system": "inflammation induced in the ear by picryl chloride", "experiment": "Picryl chloride-induced ear swelling", "format": "in vivo, BALB/C mice", "procedure": "Female BALB/C mice (Simmons Laboratories), 7 weeks old, were housed at 23-25° C. in groups of no more than 5 per cage [28 cm (L)×18 cm (W)×13 cm (H)]. They were allowed to acclimatize to standard lighting and temperature conditions for at least 1 week, with food and water available ad lib, before the experiment began. Five to ten animals were randomly assigned to each treatment group each test day, and all experiments were repeated at least twice to confirm reproducibility. To reduce error due to slight differences in responses to the irritant of animals from different shipments, tests of each agent were performed as separate experiments in which experimental and control animals were drawn from the same shipment.\nIn the experiments each animal was anesthetized with 1 mg of pentobarbital sodium solution (50 mg/kg, Nembutal, Abbott Laboratories, Abbott park, Ill.). Baseline ear thickness was measured for both ears with a spring-loaded micrometer (Swiss Precision Instruments, Los Angeles, Calif.). Ear thickness was expressed in units of 10^−3 cm; the average thickness of unstimulated ears was approximately 25-30×10^−3 cm. After baseline measurements were taken, one of six solutions was injected IP. Control animals received 0.2 ml of sterile saline, and experimental animals received Ac-α-MSH (11-13)-NH2, i.e., Ac-Lys-Pro-Val-NH2), Ac[D-Lys^11] α-MSH (11-13)-NH2, Ac[D-Pro^12] α-MSH (11-13)-NH2, Ac[D-Val^13] α-MSH (11-13)-NH2 or Ac-[D-Lys^11, D-Val^13] α-MSH (11-13)-NH2 in the same volume of saline. […] The doses of the tripeptides were 10 μg ([…]), 20 μg ([…]), 40 μg (1.04×10^−7 M), and 80 μg (2.08×10^−7 M). Immediately after saline or α-MSH injection, a micropipette was used to coat both sides of each ear with 10 μl (40 μl per mouse) of a 0.5% picryl chloride (Polysciences, Warrington, Pa.) solution in acetone.\nEar thickness was remeasured 3 and 6 h after picryl chloride application. Swelling was determined by subtracting baseline thickness from the measurements for each ear at 3 and 6 h. The differences for both ears were then averaged for the final analysis.\nRepeated-measure ANOVA techniques were used to determine if there was an overall difference among group data for each peptide tested in separate experiments. In those cases in which the ANOVA yielded significant results, Dunnett's test was then used to compare the effects of peptide doses with control (saline) data for each of the two time periods, 3 and 6 h."}}, "note": "“Also recorded” adds a separate entry of the source.", "data": [{"substance": "[Nle^4, D-Phe^7]-α-MSH", "values": [{"measurement": "antipyretic potency", "setting": "[1]", "result": "approximately ten times more potent than the parent peptide in reducing fever"}]}, {"substance": "Lys-Pro-Val (KPV; Designed polypeptide with anti-inflammatory, anti-bacterial, anti-fungal and antipyretic properties.) [α-MSH (11-13), C-terminal tripeptide KPV of α-MSH]", "values": [{"measurement": "killing of C. albicans by human neutrophils", "setting": "[2]", "result": "enhanced the killing"}, {"measurement": "reduction in the number of filamentous cells (inhibition of germination)", "setting": "[3]", "result": "54-58%"}, {"measurement": "cAMP accumulation", "setting": "[4]", "result": "increased cAMP accumlation"}, {"measurement": "relative potency in reducing C. albicans viability", "setting": "[5]; 10^−4M melanocortin peptides", "result": "the most effective"}, {"measurement": "effect on C. albicans colony forming units (CFU)", "setting": "[5]; 2 hours at 37° C., vs. control", "result": "greatly reduced; also recorded: significantly decreased C. albicans colony forming units; also recorded: inhibitory effect"}, {"measurement": "mRNA for TNF-α and iNOS (Northern blot)", "setting": "[6]", "result": "inhibition of mRNA transaction for TNF-α and iNOS"}, {"measurement": "reduction of production of IL-6", "setting": "[7]", "result": 50, "unit": "%"}, {"measurement": "reduction of production of TNF-α", "setting": "[8]", "result": 45, "unit": "%"}, {"measurement": "reduction of production of NO2^−", "setting": "[9]", "result": 40, "unit": "%"}]}, {"substance": "Ac-[D-Lys^11]α-MSH (11-13)-NH2", "values": [{"measurement": "general potency relative to L-form tripeptide", "setting": "[10]", "result": "same general potency as the L-form of the tripeptide α-MSH (11-13)"}, {"measurement": "% Inhibition of swelling", "setting": "[11]; 10 μg IP, 3 h", "result": 23, "unit": "%"}, {"measurement": "% Inhibition of swelling", "setting": "[11]; 10 μg IP, 6 h", "result": 17, "unit": "%"}, {"measurement": "% Inhibition of swelling", "setting": "[11]; 20 μg IP, 3 h", "result": 25, "unit": "%"}, {"measurement": "% Inhibition of swelling", "setting": "[11]; 20 μg IP, 6 h", "result": 16, "unit": "%"}, {"measurement": "% Inhibition of swelling", "setting": "[11]; 40 μg IP, 3 h", "result": 35, "unit": "%"}, {"measurement": "% Inhibition of swelling", "setting": "[11]; 40 μg IP, 6 h", "result": 37, "unit": "%"}, {"measurement": "% Inhibition of swelling", "setting": "[11]; 80 μg IP, 3 h", "result": 34, "unit": "%"}, {"measurement": "% Inhibition of swelling", "setting": "[11]; 80 μg IP, 6 h", "result": 29, "unit": "%"}, {"measurement": "overall effect on ear inflammation (ANOVA)", "setting": "[11]; 10-80 μg IP, 3 and 6 h", "result": "significantly reduced inflammation"}]}]}
